This note sets out measurements from publication PMC11453076, “Optimization, purification and characterization of laccase from a new endophytic Trichoderma harzianum AUMC14897 isolated from Opuntia ficus-indica and its applications in dye decolorization and wastewater treatment” (Microbial Cell Factories, 2024).

This assay relates to T1, laccase from T. harzianum AUMC14897.
T1 construct: gene benzenediol:oxygen oxidoreductase; 72 kDa by GFC and SDS-PAGE; single zymogram band
In words: ABTS oxidation at […] nm, Lineweaver-Burk plot. The note with it: ABTS 0.02-0.1 mM; pH and temperature of the Km assay not restated (general assay: 50 mM sodium acetate pH 5.4, 37 °C). The assay is classed as biochemical, Trichoderma harzianum.

Molecules are shown by their SMILES.

Consider `CCn1c(=NN=c2sc3cc(S(=O)(=O)O)ccc3n2CC)sc2cc(S(=O)(=O)O)ccc21` [ABTS, 2,2'-Azino-bis(3-ethylbenzothiazoline-6-sulfonic acid)], for which the Km was found to be 100 µM.
